{"source": "patent US20240092741A1", "about": "“COMPOSITION FOR PREVENTION OR TREATMENT OF NEUROFIBROMATOSIS TYPE 2 SYNDROME” (PRG S&TECH INC., priority 2021, published 2024)", "key": {"HEI-193 cells [1]": {"test_system": "HEI-193 cells", "assay": "Microarray gene expression profile of HEI-193 cells", "format": "cell-based, human", "details": "PRG-N-01-treated HEI-193 cells vs control", "procedure": "Total RNA (500 ng) was extracted using an RNAeasy kit (Qiagen). RNA labeling, hybridization on Human Gene 1.0 ST array (Affymetrix), and data analysis were performed using DNA Link (Seoul, Korea). Genes showing at least a 2-fold difference in each cell line were selected for further analysis."}, "Erk": {"test_system": "Erk", "assay": "Erk activation by Western blotting in HEI-193 cells", "format": "cell-based, human", "details": "24 h (FIG. 6A)", "procedure": "(§1) Cells were harvested and lysed using RIPA buffer [50 mM Tris-Cl, pH 7.5, 150 mM NaCl, 1% NP-40, 0.1% SDS, and 10% sodium deoxycholate] to examine cellular signaling. Protein concentrations in samples were measured using Bio-Rad (Hercules, CA, USA) protein assay kits and BSA standards. The samples (20 μg protein per lane) were separated by sodium dodecyl sulfate-polyacrylamide gel electrophoresis (SDS-PAGE), transferred to Immobilon-P^SQ transfer membranes (Millipore Corp., MA, USA), which were then cultured with 3% skim milk-containing TBS-T buffer (Tris-HCl-based buffer containing 20 mM Tris pH 7.6, 150 mM NaCl, and 0.05% Tween 20) for 1 hour at room temperature and then reacted with primary antibody in TBS-T overnight at 4° C. The membranes were then washed and reacted with secondary horseradish peroxidase (HRP)-conjugated antibodies [goat anti-mouse, goat anti-rabbit, and mouse anti-goat antibodies (Pierce, Thermo Fisher Scientific, Inc., Rockford, IL, USA)] in TBS-T at room temperature for 2 hours. The blots were detected using an HRP-conjugated secondary antibody using ECL kit (Intron, Seoul, Korea)."}, "RKIP": {"test_system": "RKIP", "assay": "RKIP / p-Erk immunoblotting in mouse schwannoma (mouse NF2) cells", "format": "cell-based", "procedure": "as §1"}, "mouse schwannoma cells [2]": {"test_system": "mouse schwannoma cells", "assay": "Allograft tumor growth assay", "format": "in vivo", "procedure": "For allograft, 1×10^7 mouse schwannoma cells were seeded subcutaneously on FVB/NJ mice (8 weeks old). Tumor-bearing mice were administered with the carrier (n=8) or PRG-N-01 (20 mg/kg; n=8) by intraperitoneal injection for 5 weeks (3 times per week). Every week, the tumor volume and body weight were measured. After termination of the experiment in each group, mice were dissected, and tumor tissues were isolated.\nTo examine the in vivo effect of PRG-N-01, NF2 model mouse-derived schwannoma cells were allografted to 8-week-old mice, and PRG-N-01 was administered by intraperitoneal injection (20 mg/kg, 3 times a week)."}, "HEI-193 cells [3]": {"test_system": "HEI-193 cells", "assay": "Tumorsphere formation assay, HEI-193 cells", "format": "cell-based, human", "details": "10 μM", "procedure": "(§2) For tumorsphere formation assay, Hei-193 or mouse schwannoma cells (3×10^6 cells/plate) were cultured in DMEM/F12 medium (supplemented with 2% B27 and 40 ng/ml bFGF) and added with the indicated chemicals on non-coated plates for indicated days."}, "normal fibroblasts": {"test_system": "normal fibroblasts", "assay": "MTT cell viability assay in normal fibroblasts", "format": "cell-based, human", "details": "indicated concentrations, 7 days (FIG. 5A)", "procedure": "To measure cell viability, MTT (3-(4,5-dimethylthiazol-2-yl)-2,5-diphenyltetrazolium bromide) assay was used. In other words, the cells were seeded in 96-well plates and treated with the indicated chemicals for a predetermined time. After removing the medium, 200 μl of MTT solution (0.5 mg/ml) dissolved in PBS was added to each well. Plates were then cultured at 37° C. for 4 hours, the MTT solution was removed, the precipitated substances were dissolved using a solution (DMSO:ethanol=1:1), and an amount of formazan dye produced was quantified by measuring the absorbance at 560 nm using an ELISA microplate reader (Thermo Fisher Scientific, MA, USA)."}, "mouse schwannoma cells [4]": {"test_system": "mouse schwannoma cells", "assay": "Tumorsphere formation assay, mouse schwannoma cells", "format": "cell-based", "details": "10 μM", "procedure": "as §2"}, "HEI-193 cells [5]": {"test_system": "HEI-193 cells", "assay": "Morphological change / differentiation of HEI-193 cells", "format": "cell-based, human", "details": "7 days (FIGS. 12C, 13B)"}, "[6]": {"assay": "High-dose toxicity in normal mice (body weight)", "format": "in vivo"}, "HEI-193 cells [7]": {"test_system": "HEI-193 cells", "assay": "RT-PCR gene expression in HEI-193 cells", "format": "cell-based, human", "procedure": "For RT-PCR, total cellular RNA was extracted using an RNA extraction kit (Qiagen). Gene expression analysis was performed using cDNA synthesized from total RNA with MMLV RT (Invitrogen, Carlsbad, USA) and random hexamer. PCR from genomic DNA was performed using DiaStar Taq DNA polymerase (SolGent, Daejeon, Korea), and gene expression analysis was performed using the following specific primers: […]"}, "[8]": {"details": "isolated allograft tumors, RT-PCR (FIG. 17E)"}, "[9]": {"details": "tumorspheres, 10th day, immunoblotting (FIGS. 15B, 14E)"}}, "data": [{"molecule": "CCN(CC)CCOc1ccc(-c2nnn(Cc3ccc(OC)cc3)c2N)cc1", "note": "[PRG-N-01, 4-(4-(2-(diethylamino)ethoxy)phenyl)-1-(4-methoxybenzyl)-1H-1,2,3-triazol-5-amino]", "values": [{"measurement": "Log2Ratio, gene FABP3 (fatty acid binding protein 3, muscle and heart)", "setting": "HEI-193 cells [1]", "value": "−2.272"}, {"measurement": "Log2Ratio, gene HIST1H1B", "setting": "HEI-193 cells [1]", "value": "−2.475"}, {"measurement": "Log2Ratio, gene MEST", "setting": "HEI-193 cells [1]", "value": "−1.95"}, {"measurement": "Log2Ratio, gene MMP1", "setting": "HEI-193 cells [1]", "value": 2.163}, {"measurement": "Log2Ratio, gene MSMO1", "setting": "HEI-193 cells [1]", "value": "−1.988"}, {"measurement": "Log2Ratio, gene OLFML3", "setting": "HEI-193 cells [1]", "value": "−2.099"}, {"measurement": "Log2Ratio, gene PBK", "setting": "HEI-193 cells [1]", "value": "−1.976"}, {"measurement": "Log2Ratio, gene PLK1 (polo-like kinase 1)", "setting": "HEI-193 cells [1]", "value": "−2.041"}, {"measurement": "Log2Ratio, gene PRR11", "setting": "HEI-193 cells [1]", "value": "−2.207"}, {"measurement": "Log2Ratio, gene TOP2A", "setting": "HEI-193 cells [1]", "value": "−1.931"}, {"measurement": "cell-cycle-related genes (PLK1, CENPE) expression", "setting": "HEI-193 cells [1]", "value": "downregulated"}, {"measurement": "lipid metabolism-related genes (PNILPRP3, NR4A2, ABCA1) expression", "setting": "HEI-193 cells [1]", "value": "strikingly upregulated"}, {"measurement": "tenascin C gene expression (readout of canonical TGF-β signaling)", "setting": "HEI-193 cells [1]", "value": "considerably upregulated"}, {"measurement": "Erk activation", "setting": "Erk", "value": "inhibited Erk activation"}, {"measurement": "RKIP expression", "setting": "RKIP; mouse NF2 cell line", "value": "increased RKIP expression"}, {"measurement": "RKIP induction and p-Erk suppression", "setting": "RKIP; mouse schwannoma cells, 36 h (FIG. 9B)", "value": "observed only in actual mouse schwannoma"}, {"measurement": "SOX2 mRNA in tumor tissues", "setting": "mouse schwannoma cells [2]; [8]", "value": "reduction"}, {"measurement": "schwann cell markers and SOX10 mRNA in tumor tissues", "setting": "mouse schwannoma cells [2]; [8]", "value": "induction"}, {"measurement": "RKIP, schwann cell markers (PLP, MBP, MPZ) and SOX10 at the protein level in tumor tissues", "setting": "mouse schwannoma cells [2]; isolated allograft tumors, immunoblotting (FIG. 17D)", "value": "induction"}, {"measurement": "tumor growth", "setting": "mouse schwannoma cells [2]; mouse schwannoma allograft in FVB/NJ mice, 20 mg/kg i.p., 3 times a week, 5 weeks", "value": "inhibited tumor growth"}, {"measurement": "tumor size and weight", "setting": "mouse schwannoma cells [2]; mouse schwannoma allograft, 20 mg/kg i.p., 3 times a week, 5 weeks (FIGS. 17B, 17C)", "value": "obviously suppressed"}, {"measurement": "tumorsphere size and number", "setting": "HEI-193 cells [3]; HEI-193 cells, 10th day", "value": "reduced the tumorsphere size as well as the number of tumorsphere"}, {"measurement": "tumorsphere formation", "setting": "HEI-193 cells [3]; HEI-193 cells, DMEM/F12 medium", "value": "obviously inhibited tumorsphere formation"}, {"measurement": "SOX10 expression in tumorspheres", "setting": "HEI-193 cells [3]; [9]", "value": "obviously increased"}, {"measurement": "expression of stem cell factors (SOX2, c-Myc, Nanog, Oct4) in tumorspheres", "setting": "HEI-193 cells [3]; [9]", "value": "downregulated to undetectable levels"}, {"measurement": "toxicity in normal fibroblasts (MTT)", "setting": "normal fibroblasts", "value": "without causing toxicity"}, {"measurement": "tumorsphere size and number", "setting": "mouse schwannoma cells [4]; 10th day", "value": "reduced the tumorsphere size as well as the number of tumorsphere"}, {"measurement": "tumorsphere formation", "setting": "mouse schwannoma cells [4]; DMEM/F12 medium", "value": "obviously inhibited tumorsphere formation"}, {"measurement": "morphological changes", "setting": "HEI-193 cells [5]", "value": "induced morphological changes"}, {"measurement": "body weight", "setting": "[6]; 200 mg/kg intraperitoneally (FIG. 18B)", "value": "did not change the body weight"}, {"measurement": "toxicity", "setting": "[6]; 200 mg/kg, 10 times the therapeutic dose", "value": "did not cause severe toxicity"}, {"measurement": "expression of cell cycle-related genes (CDK1, CDK4, CCNB1, PLK4)", "setting": "HEI-193 cells [7]; RT-PCR (FIG. 12D)", "value": "decreased"}, {"measurement": "expression of schwann cell markers (PLP, MBP, GFAP MPZ, PMP22, SOX10)", "setting": "HEI-193 cells [7]; RT-PCR (FIGS. 12D, 13C)", "value": "increased"}]}]}
